Laboratory results reported in PubChem BioAssay AID1745844 (Carcinogenic Potency Database (CPDB), 2022).
“And” between values parts separate entries of the source, which are not always exact repeats. Identical values can stand only once. The source made the active and inactive calls. How the calls were made is not given here.

Tested on: rodent lifetime carcinogenesis bioassay, tumor incidence TD50
Experiment: carcinogenic potency in animals, long-term in vivo studies, CPDB compilation (AID 1745844)
Conditions: in feed

ClC1=C(Cl)[C@]2(Cl)[C@@H]3[C@@H]4C[C@@H]([C@H]5O[C@@H]45)[C@@H]3[C@@]1(Cl)C2(Cl)Cl
TD50 (hamster, strain Syrian Golden, females, site: any site (literature study), lesion: several types, types named in the paper, dosed 100 weeks, study length 114 weeks): 355 mg/kg/day (inactive)
TD50 (hamster, strain Syrian Golden, females, site: liver, lesion: hepatoma, dosed 100 weeks, study length 114 weeks): 176 mg/kg/day (inactive)
carcinogen call (hamster, strain Syrian Golden, females, site: lung, lesion: one or several types, types not named, dosed 100 weeks, study length 114 weeks): negative (inactive)
TD50 (hamster, strain Syrian Golden, males, site: any site (literature study), lesion: several types, types named in the paper, dosed 114 weeks, study length 114 weeks): 69.9 mg/kg/day (inactive)
TD50 (hamster, strain Syrian Golden, males, site: liver, lesion: hepatoma, dosed 114 weeks, study length 114 weeks): 198 mg/kg/day (inactive)
TD50 (hamster, strain Syrian Golden, males, site: lung, lesion: adenoma, dosed 114 weeks, study length 114 weeks): 732 mg/kg/day (inactive)
carcinogen call (mouse, strain B6C3F1, females, site: any site (literature study), lesion: several types, types named in the paper, dosed 80 weeks, study length 91 weeks): negative (inactive)
TD50 (mouse, strain B6C3F1, females, site: liver, lesion: hepatocellular adenoma + hepatocellular carcinoma + neoplastic nodule, dosed 80 weeks, study length 91 weeks): 1.09 mg/kg/day
TD50 (mouse, strain B6C3F1, females, site: lung, lesion: alveolar/bronchiolar adenoma + alveolar/bronchiolar carcinoma, dosed 80 weeks, study length 91 weeks): 5.05 mg/kg/day
TD50 (mouse, strain B6C3F1, males, site: any site (literature study), lesion: several types, types named in the paper, dosed 80 weeks, study length 91 weeks): 1.06 mg/kg/day (inactive)
TD50 (mouse, strain B6C3F1, males, site: liver, lesion: hepatocellular adenoma + hepatocellular carcinoma + neoplastic nodule, dosed 80 weeks, study length 91 weeks): 1.04 mg/kg/day
TD50 (mouse, strain B6C3F1, males, site: liver, lesion: hepatocellular carcinoma, dosed 80 weeks, study length 89 weeks): 1.35 mg/kg/day
TD50 (mouse, strain B6C3F1, males, site: lung, lesion: alveolar/bronchiolar adenoma + alveolar/bronchiolar carcinoma, dosed 80 weeks, study length 91 weeks): 24.7 mg/kg/day
TD50 (mouse, strain C3HeB/Fe, both sexes, site: any site (literature study), lesion: benign tumor, dosed 104 weeks, study length 104 weeks): 3.1 mg/kg/day
TD50 (mouse, strain C3HeB/Fe, both sexes, site: liver, lesion: hepatocellular adenoma, dosed 104 weeks, study length 104 weeks): 4.09 mg/kg/day
TD50 (mouse, strain C3HeB/Fe, both sexes, site: liver, lesion: hepatocellular carcinoma, dosed 104 weeks, study length 104 weeks): 167 mg/kg/day
TD50 (mouse, strain C3HeB/Fe, both sexes, site: liver, lesion: hepatoma, dosed 104 weeks, study length 104 weeks): 3.08 mg/kg/day
TD50 (mouse, strain CF-1, females, site: liver, lesion: liver-cell tumor, type B, dosed 90 weeks, study length 90 weeks): 2.59 mg/kg/day
TD50 (mouse, strain CF-1, females, site: liver, lesion: liver-cell tumor, type B, dosed 106 weeks, study length 106 weeks): 3.96 mg/kg/day
TD50 (mouse, strain CF-1, females, site: liver, lesion: liver-cell tumor, type B, dosed 108 weeks, study length 128 weeks): 9.72 mg/kg/day
TD50 (mouse, strain CF-1, females, site: liver, lesion: liver-cell tumor, type B, dosed 122 weeks, study length 138 weeks): 1.96 mg/kg/day
TD50 (mouse, strain CF-1, females, site: liver, lesion: liver-cell tumor, type B, dosed 128 weeks, study length 128 weeks): 12.1 mg/kg/day
TD50 (mouse, strain CF-1, females, site: liver, lesion: liver-cell tumor, dosed 110 weeks, study length 110 weeks): 1.59 mg/kg/day
TD50 (mouse, strain CF-1, females, site: liver, lesion: several types, types named in the paper, dosed 90 weeks, study length 90 weeks): 1.05 mg/kg/day
TD50 (mouse, strain CF-1, females, site: liver, lesion: several types, types named in the paper, dosed 106 weeks, study length 106 weeks): 1.16 mg/kg/day
TD50 (mouse, strain CF-1, females, site: liver, lesion: several types, types named in the paper, dosed 108 weeks, study length 128 weeks): 1.49 mg/kg/day
TD50 (mouse, strain CF-1, females, site: liver, lesion: several types, types named in the paper, dosed 110 weeks, study length 110 weeks): 0.567 mg/kg/day
TD50 (mouse, strain CF-1, females, site: liver, lesion: several types, types named in the paper, dosed 122 weeks, study length 138 weeks): 0.642 mg/kg/day
TD50 (mouse, strain CF-1, females, site: liver, lesion: several types, types named in the paper, dosed 128 weeks, study length 128 weeks): 3.11 mg/kg/day
carcinogen call (mouse, strain CF-1, females, site: lung, lesion: adenoma, dosed 90 weeks, study length 90 weeks): negative (inactive)
TD50 (mouse, strain CF-1, females, site: lung, lesion: adenoma, dosed 106 weeks, study length 106 weeks): 5.69 mg/kg/day (inactive)
carcinogen call (mouse, strain CF-1, females, site: lung, lesion: adenoma, dosed 108 weeks, study length 128 weeks): negative (inactive)
TD50 (mouse, strain CF-1, females, site: lung, lesion: adenoma, dosed 122 weeks, study length 138 weeks): 0.606 mg/kg/day (inactive)
carcinogen call (mouse, strain CF-1, females, site: lung, lesion: adenoma, dosed 128 weeks, study length 128 weeks): negative (inactive)
carcinogen call (mouse, strain CF-1, females, site: lung, lesion: carcinoma, dosed 90 weeks, study length 90 weeks): negative (inactive)
carcinogen call (mouse, strain CF-1, females, site: lung, lesion: carcinoma, dosed 106 weeks, study length 106 weeks): negative (inactive)
carcinogen call (mouse, strain CF-1, females, site: lung, lesion: carcinoma, dosed 108 weeks, study length 128 weeks): negative (inactive)
TD50 (mouse, strain CF-1, females, site: lung, lesion: carcinoma, dosed 122 weeks, study length 138 weeks): 1.78 mg/kg/day (inactive)
carcinogen call (mouse, strain CF-1, females, site: lung, lesion: carcinoma, dosed 128 weeks, study length 128 weeks): negative (inactive)
carcinogen call (mouse, strain CF-1, females, site: lung, lesion: one or several types, types not named, dosed 110 weeks, study length 110 weeks): negative (inactive)
TD50 (mouse, strain CF-1, males, site: liver, lesion: liver-cell tumor, type B, dosed 110 weeks, study length 124 weeks): 4.02 mg/kg/day
TD50 (mouse, strain CF-1, males, site: liver, lesion: liver-cell tumor, type B, dosed 112 weeks, study length 128 weeks): 4.66 mg/kg/day
TD50 (mouse, strain CF-1, males, site: liver, lesion: liver-cell tumor, type B, dosed 120 weeks, study length 134 weeks): 1.68 mg/kg/day
TD50 (mouse, strain CF-1, males, site: liver, lesion: liver-cell tumor, type B, dosed 128 weeks, study length 128 weeks): 5.12 mg/kg/day and 6.58 mg/kg/day
TD50 (mouse, strain CF-1, males, site: liver, lesion: liver-cell tumor, dosed 110 weeks, study length 110 weeks): 1.28 mg/kg/day
carcinogen call (mouse, strain CF-1, males, site: liver, lesion: several types, types named in the paper, dosed 110 weeks, study length 110 weeks): positive
TD50 (mouse, strain CF-1, males, site: liver, lesion: several types, types named in the paper, dosed 110 weeks, study length 124 weeks): 0.713 mg/kg/day
TD50 (mouse, strain CF-1, males, site: liver, lesion: several types, types named in the paper, dosed 112 weeks, study length 128 weeks): 1.12 mg/kg/day
TD50 (mouse, strain CF-1, males, site: liver, lesion: several types, types named in the paper, dosed 120 weeks, study length 134 weeks): 0.547 mg/kg/day
TD50 (mouse, strain CF-1, males, site: liver, lesion: several types, types named in the paper, dosed 128 weeks, study length 128 weeks): 0.913 mg/kg/day and 1.91 mg/kg/day
carcinogen call (mouse, strain CF-1, males, site: lung, lesion: adenoma, dosed 110 weeks, study length 124 weeks): negative (inactive)
carcinogen call (mouse, strain CF-1, males, site: lung, lesion: adenoma, dosed 112 weeks, study length 128 weeks): negative (inactive)
TD50 (mouse, strain CF-1, males, site: lung, lesion: adenoma, dosed 120 weeks, study length 134 weeks): 2.13 mg/kg/day (inactive)
carcinogen call (mouse, strain CF-1, males, site: lung, lesion: adenoma, dosed 128 weeks, study length 128 weeks): negative (inactive)
carcinogen call (mouse, strain CF-1, males, site: lung, lesion: carcinoma, dosed 110 weeks, study length 124 weeks): negative (inactive)
carcinogen call (mouse, strain CF-1, males, site: lung, lesion: carcinoma, dosed 112 weeks, study length 128 weeks): negative (inactive)
TD50 (mouse, strain CF-1, males, site: lung, lesion: carcinoma, dosed 120 weeks, study length 134 weeks): 3.71 mg/kg/day (inactive)
carcinogen call (mouse, strain CF-1, males, site: lung, lesion: carcinoma, dosed 128 weeks, study length 128 weeks): negative (inactive)
carcinogen call (mouse, strain CF-1, males, site: lung, lesion: one or several types, types not named, dosed 110 weeks, study length 110 weeks): negative (inactive)
carcinogen call (rat, strain CFE, females, site: any site (literature study), lesion: several types, types named in the paper, dosed 104 weeks, study length 104 weeks): negative (inactive)
TD50 (rat, strain CFE, males, site: any site (literature study), lesion: several types, types named in the paper, dosed 104 weeks, study length 104 weeks): 2.01 mg/kg/day (inactive)
TD50 (rat, strain Fischer 344, females, site: any site (literature study), lesion: several types, types named in the paper, dosed 105 weeks, study length 104 weeks): 489 mg/kg/day (inactive)
TD50 (rat, strain Fischer 344, males, site: any site (literature study), lesion: several types, types named in the paper, dosed 105 weeks, study length 104 weeks): 7.28 mg/kg/day (inactive)
TD50 (rat, strain Not specified, females, site: any site (literature study), lesion: one or several types, types not named, dosed 104 weeks, study length 104 weeks): 57.2 mg/kg/day (inactive)
TD50 (rat, strain Not specified, males, site: any site (literature study), lesion: one or several types, types not named, dosed 104 weeks, study length 104 weeks): 40.5 mg/kg/day (inactive)
carcinogen call (rat, strain Osborne-Mendel, both sexes, site: any site (literature study), lesion: several types, types named in the paper, dosed 104 weeks, study length 104 weeks): positive
TD50 (rat, strain Osborne-Mendel, females, site: adrenal gland, lesion: cortical adenoma + cortical carcinoma, dosed 90 weeks, study length 109 weeks): 4.42 mg/kg/day (inactive)
carcinogen call (rat, strain Osborne-Mendel, females, site: any site (literature study), lesion: several types, types named in the paper, dosed 90 weeks, study length 110 weeks): negative (inactive)
carcinogen call (rat, strain Osborne-Mendel, females, site: any site (literature study), lesion: several types, types named in the paper, dosed 121 weeks, study length 126 weeks): negative (inactive)
TD50 (rat, strain Osborne-Mendel, females, site: liver, lesion: hepatocellular adenoma + hepatocellular carcinoma + neoplastic nodule, dosed 90 weeks, study length 110 weeks): 38.4 mg/kg/day
carcinogen call (rat, strain Osborne-Mendel, females, site: liver, lesion: one or several types, types not named, dosed 121 weeks, study length 126 weeks): negative (inactive)
TD50 (rat, strain Osborne-Mendel, males, site: any site (literature study), lesion: several types, types named in the paper, dosed 90 weeks, study length 110 weeks): 3.34 mg/kg/day (inactive)
carcinogen call (rat, strain Osborne-Mendel, males, site: any site (literature study), lesion: several types, types named in the paper, dosed 126 weeks, study length 126 weeks): negative (inactive)
carcinogen call (rat, strain Osborne-Mendel, males, site: liver, lesion: hemangioma, dosed 126 weeks, study length 126 weeks): negative (inactive)
